Data reported in patent US20040121965A1, “Method of treating resistant tumors” (Wyeth Holdings Corporation, priority 2002, published 2004).
Read-outs that look alike come from different tables or passages of the source.

Experiments:
[1] = test system: KB-3-1; experiment: Cell survival assay (SRB), KB-3-1; format: cell-based, human; conditions: Homo sapiens, KB 3-1, KB-3-1 cells (paclitaxel-sensitive parent); read-out: In vitro IC50 (nM) KB-3-1
In short: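 IC50 for 50% growth inhibition after 3-day compound exposure, tested in duplicate. SRB protein staining of TCA-fixed cells (10% TCA, 1 hr, 4 °C), solubilised in Tris base and read by absorbance, was used as the survival read-out, with KB-3-1 grown in 20% FCS.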

[2] = test system: KB-8-5 (MDR1+); experiment: Cell survival assay (SRB), KB-8-5 (MDR1+); conditions: for IC50: Homo sapiens, MDR1, read-out: In vitro IC50 (nM) KB85
[3] = test system: KB-V1 (MDR1++); experiment: Cell survival assay (SRB), KB-V1 (MDR1++); conditions: for IC50: Homo sapiens
[4] = read-out: In vitro IC50 (nM) KBV1

| Structure (SMILES) | IC50 [1] | Ratio KB85/KB [2] | IC50 [2] | Ratio KBV1/KB [3] | IC50 [3, 4] | IC50 ([3]; read-out: In vitro IC50 KBV1) |
| --- | --- | --- | --- | --- | --- | --- |
| CN[C@H](C(=O)N[C@H](C(=O)N(C)[C@H](/C=C(\C)C(=O)O)C(C)C)C(C)(C)C)C(C)(C)c1c[nH]c2ccccc12 [Example 141, N,β,β-trimethyl-L-tryptophyl-N^1-[(1S,2E)-3-carboxy-1-isopropyl-2-butenyl]-N^1,3-dimethyl-L-valinamide] | 0.695 nM | 2.4 | 1.65 nM | 139.4 | 96.9 nM | – |
| CN[C@H](C(=O)N[C@H](C(=O)N(C)[C@H](/C=C(\C)C(=O)O)C(C)C)C(C)(C)C)C(C)(C)C [Example 140, N,3-dimethyl-L-valyl-N^1-[(1S,2E)-3-carboxy-1-isopropyl-2-butenyl]-N^1,3-dimethyl-L-valinamide] | 114 nM | 1.6 | 181 nM | 26.4 | ≥ 3000 nM | – |
| CN[C@H](C(=O)N[C@H](C(=O)N(C)[C@H](/C=C(\C)C(=O)O)C(C)C)C(C)(C)C)C(C)(C)Cc1ccccc1 [Example 48, N,3-Dimethyl-4-phenyl-L-valyl-N^1-[(1S,2E)-3-carboxy-1-isopropyl-2-butenyl]-N^1,3-dimethyl-L-valinamide] | 2.7 nM | 2.2 | 6 nM | 81.0 | 219 nM | – |
| CCOC(=O)/C(C)=C/[C@H](C(C)C)N(C)C(=O)[C@@H](NC(=O)[C@@H](NC)C(C)(C)c1ccccc1)C(C)(C)SC [Example 79, Ethyl (E,4S)-2,5-dimethyl-4-{methyl[(2R)-3-methyl-2-{[(2S)-3-methyl-2-(methylamino)-3-phenylbutanoyl]amino}-3-(methylsulfanyl)butanoyl]amino}-2-hexenoate] | 449 nM | 3.2 | 1420 nM | 5.4 | 2440 nM | – |
| CCOC(=O)/C(C)=C/C(C(C)C)N(C)C(=O)[C@@H](NC(=O)[C@@H](NC)C(C)(C)c1ccccc1)[C@H](C)O (stereo in doubt) [Example 85, N,β,β-trimethyl-L-phenylalanyl-N^1-[(1R,2E)-4-ethoxy-1-isopropyl-3-methyl-4-oxo-2-butenyl]-N^1-methyl-L-allothreoninamide] | 115 nM | 11.5 | 1330 nM | 26.0 | ≥ 3000 nM | – |
| CNC(=O)/C(C)=C/[C@H](C(C)C)N(C)C(=O)[C@@H](NC(=O)[C@@H](NC)C(C)(C)c1ccccc1)C(C)(C)C [Example 108, (E,4S)-4-[((2S)-3,3-dimethyl-2-{[(2S)-3-methyl-2-(methylamino)-3-phenylbutanoyl]amino}butanoyl)(methyl)amino]-N,2,5-trimethyl-2-hexenamide] | 68.3 nM | 1.9 | 129 nM | 23.3 | 1590 nM | – |
| CCOC(=O)/C(C)=C/[C@H](C(C)C)N(C)C(=O)[C@@H](NC(=O)[C@H](NC)C(C)(C)c1cccc(C)c1)C(C)(C)C [Example 7b, N,β,β,3-tetramethyl-D-phenylalanyl-N^1-[(1S,2E)-4-ethoxy-1-isopropyl-3-methyl4-oxo-2-butenyl]-N^1,3-dimethyl-L-valinamide] | 263 nM | 6.5 | 1700 nM | 11.4 | ≥ 3000 nM | – |
| CCCCCCCCOC(=O)/C(C)=C/[C@H](C(C)C)N(C)C(=O)[C@@H](NC(=O)[C@@H](NC)C(C)(C)c1ccccc1)C(C)(C)C [Example 116, N,β,β-trimethyl-L-phenylalanyl-N^1-[(1S,2E)-1-isopropyl-3-methyl-4-(octyloxy)-4-oxobut-2-enyl]-N^1,3-dimethyl-L-valinamide] | 150 nM | 10.9 | 1630 nM | – | – | > 3000 nM |
| CN[C@@H](C(=O)N[C@H](C(=O)N(C)[C@H](/C=C(\C)C(=O)O)C(C)C)C(C)(C)C)C(C)(C)c1ccc(C)cc1 [Example 12, N,β,β,4-Tetramethyl-D-phenylalanyl-N^1-[(1S,2E)-3-carboxy-1-isopropyl-2-butenyl]-N^1,3-dimethyl-L-valinamide] | 17 nM | 1.6 | 27.5 nM | 63.1 | 1070 nM | – |
| CN[C@H](C(=O)N[C@H](C(=O)N(C)[C@H](/C=C(\C)C(=O)O)C(C)C)C(C)(C)C)C(C)(C)c1cccc(Br)c1 [Example 37, 3-bromo-N,β,β-trimethyl-L-phenylalanyl-N^1-[(1S,2E)-3-carboxy-1-isopropylbut-2-enyl]-N^1,3-dimethyl-L-valinamide] | 1.8 nM | 2.3 | 4.1 nM | 82.2 | 148 nM | – |
| CCOC(=O)/C(C)=C/[C@H](C(C)C)N(C)C(=O)[C@@H](NC(=O)[C@@H](NC)C(C)(C)c1ccc(OC)cc1OC)C(C)(C)C [Example 58, 2-Methoxy-N,O,β,β,tetramethyl-L-tyrosyl-N^1-[(1S,2E)-4-ethoxy-1-isopropyl-3-methyl-4-oxo-2-butenyl]-N^1,3-dimethyl-L-valinamide] | 144 nM | 11.7 | 1700 nM | 20.8 | ≥ 3000 nM | – |
| CN[C@H](C(=O)N[C@H](C(=O)N(C)[C@H](/C=C(\C)C(=O)O)C(C)C)[C@H](C)O)C(C)(C)c1ccccc1 [Example 86, N,β,β-trimethyl-L-phenylalanyl-N^1-[(1S,2E)-3-carboxy-1-isopropyl-2-butenyl]-N^1-methyl-L-allothreoninamide] | 311 nM | 2.2 | 669 nM | 9.7 | ≥ 3000 nM | – |
| CCOC(=O)/C(C)=C/[C@H](C(C)C)N(C)C(=O)[C@@H](NC(=O)[C@@H](NC)C(C)(C)c1cccc(Cl)c1)C(C)(C)C [Example 1a, 3-Chloro-N,β,β-trimethyl-L-phenylalanyl-N^1-[(1S,2E)4-ethoxy-1-isopropyl-3-methyl-4-oxo-2-butenyl]-N^1,3-dimethyl-L-valinamide] | 562 nM | 3.1 | 1740 nM | 5.3 | ≥ 3000 nM | – |
| CCOC(=O)/C(C)=C/[C@H](C(C)C)N(C)C(=O)[C@@H](NC(=O)[C@@H](NC)C(C)(C)C1CCCCC1)C(C)(C)C [Reference Example 100, 3-Cyclohexyl-N-methyl-L-valyl-N^1-[(1S,2E)-4-ethoxy-1-isopropyl-3-methyl-4-oxo-2-butenyl]-N^1,3-dimethyl-L-valinamide] | 229 nM | 2.6 | 602 nM | 8.5 | 1950 nM | – |
| CN[C@H](C(=O)N[C@H](C(=O)N(C)[C@H](/C=C(\C)C(=O)O)C(C)C)C(C)(C)C)C1(c2ccccc2)CCCC1 [Example 71, (2E,4S)-2,5-dimethyl-4-(methyl{3-methyl-N-[(2S)-2-(methylamino)-2-(1-phenylcyclopentyl)ethanoyl]-L-valyl}amino)-2-hexenoic acid] | 141 nM | 1.3 | 186 nM | 21.2 | ≥ 3000 nM | – |
